Test results: the NIST ThermoML archive (doi:10.1021/je0602824)

Assay: xn = mol fraction of the nth substance listed
Conditions: 101 kPa, Liquid

CCn1cc[n+](C)c1.O=S(=O)([O-])C(F)(F)F [1-ethyl-3-methylimidazolium trifluoromethanesulfonate] + O
Conditions | mass density [kg/m3] | viscosity [mPa·s]
278.15 K, x2 = 0 | 1400.52 | 96
278.15 K, x2 = 0.2286 | – | 47
278.15 K, x2 = 0.2295 | 1388.3 | –
278.15 K, x2 = 0.431 | 1372.38 | –
278.15 K, x2 = 0.4324 | – | 28
278.15 K, x2 = 0.6157 | 1347.34 | –
278.15 K, x2 = 0.6159 | – | 18
278.15 K, x2 = 0.7825 | 1299.91 | –
278.15 K, x2 = 0.783 | – | 10
278.15 K, x2 = 0.8608 | 1254.76 | –
278.15 K, x2 = 0.9352 | – | 5
278.15 K, x2 = 0.9353 | 1171.9 | –
278.15 K, x2 = 0.9712 | 1097.49 | –
278.15 K, x2 = 0.9924 | 1030.35 | –
288.15 K, x2 = 0 | 1392.04 | 61
288.15 K, x2 = 0.2286 | – | 32
288.15 K, x2 = 0.2295 | 1379.81 | –
288.15 K, x2 = 0.431 | 1363.87 | –
288.15 K, x2 = 0.4324 | – | 20
288.15 K, x2 = 0.6157 | 1338.87 | –
288.15 K, x2 = 0.6159 | – | 13
288.15 K, x2 = 0.7825 | 1291.74 | –
288.15 K, x2 = 0.783 | – | 7
288.15 K, x2 = 0.8608 | 1247.16 | –
288.15 K, x2 = 0.9352 | – | 4
288.15 K, x2 = 0.9353 | 1165.97 | –
288.15 K, x2 = 0.9712 | 1093.64 | –
288.15 K, x2 = 0.9924 | 1028.64 | –
298.15 K, x2 = 0 | 1383.6 | 41
298.15 K, x2 = 0.2286 | – | 23
298.15 K, x2 = 0.2295 | 1371.36 | –
298.15 K, x2 = 0.431 | 1355.39 | –
298.15 K, x2 = 0.4324 | – | 15
298.15 K, x2 = 0.6157 | 1330.37 | –
298.15 K, x2 = 0.6159 | – | 10
298.15 K, x2 = 0.7825 | 1283.47 | –
298.15 K, x2 = 0.783 | – | 6
298.15 K, x2 = 0.8608 | 1239.38 | –
298.15 K, x2 = 0.9352 | – | 3
298.15 K, x2 = 0.9353 | 1159.65 | –
298.15 K, x2 = 0.9712 | 1089.08 | –
298.15 K, x2 = 0.9924 | 1025.88 | –
308.15 K, x2 = 0 | 1375.22 | 29
308.15 K, x2 = 0.2286 | – | 17
308.15 K, x2 = 0.2295 | 1362.95 | –
308.15 K, x2 = 0.431 | 1346.93 | –
308.15 K, x2 = 0.4324 | – | 12
308.15 K, x2 = 0.6157 | 1321.86 | –
308.15 K, x2 = 0.6159 | – | 8
308.15 K, x2 = 0.7825 | 1275.1 | –
308.15 K, x2 = 0.783 | – | 5
308.15 K, x2 = 0.8608 | 1231.42 | –
308.15 K, x2 = 0.9352 | – | 3
308.15 K, x2 = 0.9353 | 1152.94 | –
308.15 K, x2 = 0.9712 | 1083.9 | –
308.15 K, x2 = 0.9924 | 1022.24 | –
318.15 K, x2 = 0 | 1366.9 | 21
318.15 K, x2 = 0.2286 | – | 13
318.15 K, x2 = 0.2295 | 1354.59 | –
318.15 K, x2 = 0.431 | 1338.49 | –
318.15 K, x2 = 0.4324 | – | 10
318.15 K, x2 = 0.6157 | 1313.33 | –
318.15 K, x2 = 0.6159 | – | 7
318.15 K, x2 = 0.7825 | 1266.62 | –
318.15 K, x2 = 0.783 | – | 4
318.15 K, x2 = 0.8608 | 1223.27 | –
318.15 K, x2 = 0.9352 | – | 3
318.15 K, x2 = 0.9353 | 1145.88 | –
318.15 K, x2 = 0.9712 | 1078.18 | –
318.15 K, x2 = 0.9924 | 1017.86 | –
328.15 K, x2 = 0 | 1358.63 | 16
328.15 K, x2 = 0.2286 | – | 10
328.15 K, x2 = 0.2295 | 1346.27 | –
328.15 K, x2 = 0.431 | 1330.07 | –
328.15 K, x2 = 0.4324 | – | 8
328.15 K, x2 = 0.6157 | 1304.78 | –
328.15 K, x2 = 0.6159 | – | 6
328.15 K, x2 = 0.7825 | 1258.04 | –
328.15 K, x2 = 0.783 | – | 4
328.15 K, x2 = 0.8608 | 1214.94 | –
328.15 K, x2 = 0.9352 | – | 3
328.15 K, x2 = 0.9353 | 1138.49 | –
328.15 K, x2 = 0.9712 | 1071.95 | –
328.15 K, x2 = 0.9924 | 1012.83 | –
338.15 K, x2 = 0 | 1350.43 | 13
338.15 K, x2 = 0.2286 | – | 9
338.15 K, x2 = 0.2295 | 1338.01 | –
338.15 K, x2 = 0.431 | 1321.68 | –
338.15 K, x2 = 0.4324 | – | 7
338.15 K, x2 = 0.6157 | 1296.19 | –
338.15 K, x2 = 0.6159 | – | 5
338.15 K, x2 = 0.7825 | 1249.35 | –
338.15 K, x2 = 0.783 | – | 4
338.15 K, x2 = 0.8608 | 1206.43 | –
338.15 K, x2 = 0.9352 | – | 2
338.15 K, x2 = 0.9353 | 1130.76 | –
338.15 K, x2 = 0.9712 | 1065.25 | –
338.15 K, x2 = 0.9924 | 1007.21 | –
348.15 K, x2 = 0 | 1342.3 | 11
348.15 K, x2 = 0.2286 | – | 7
348.15 K, x2 = 0.2295 | 1329.77 | –
348.15 K, x2 = 0.431 | 1313.29 | –
348.15 K, x2 = 0.4324 | – | 6
348.15 K, x2 = 0.6157 | 1287.58 | –
348.15 K, x2 = 0.6159 | – | 5
348.15 K, x2 = 0.7825 | 1240.55 | –
348.15 K, x2 = 0.783 | – | 3
348.15 K, x2 = 0.8608 | 1197.74 | –
348.15 K, x2 = 0.9352 | – | 2
348.15 K, x2 = 0.9353 | 1122.73 | –
348.15 K, x2 = 0.9712 | 1058.13 | –
348.15 K, x2 = 0.9924 | 1001.05 | –
